In ChEMBL document CHEMBL4257544, “Synthesis and biological evaluation of novel asymmetric naphthalene diimide derivatives as anticancer agents depending on ROS generation” (Medchemcomm, 2018):
Active and inactive are the calls of the source. No cut-off for these calls is given here.

How the values were obtained:
[1] = system: SMMC-7721; test: Cytotoxicity against human SMMC7721 cells assessed as reduction in cell viability treated at 1 hr post antioxidant alpha-tocopherol addition by MTT assay; format: functional, cell-based
[2] = system: HepG2; test: Cytotoxicity against human HepG2 cells assessed as reduction in cell viability treated at 1 hr post antioxidant alpha-tocopherol addition by MTT assay; format: functional, cell-based
[3] = system: SMMC-7721; test: Cytotoxicity against human SMMC7721 cells assessed as reduction in cell volume after 24 hrs; format: functional, cell-based
[4] = system: SMMC-7721; test: Induction of autophagy in human SMMC7721 cells assessed as increase in LC3-2 protein expression treated at 1 hr post antioxidant alpha-tocopherol addition and measured after 24 hrs by Western blot analysis; format: functional, cell-based
[5] = system: HepG2; test: Induction of apoptosis in human HepG2 cells after 24 hrs by acridine orange/ethidium bromide and Hoechst 33342 staining based HCS analysis; format: functional, cell-based
[6] = system: SMMC-7721; test: Induction of autophagy in human SMMC7721 cells assessed as autophagosome formation at 2 uM after 12 hrs by transmission electron microscopic method; format: functional, cell-based
[7] = system: SMMC-7721; test: Induction of autophagy in human SMMC7721 cells assessed as increase in BECN1 level at 1 to 3 uM by Western blot analysis; format: functional, cell-based
[8] = system: SMMC-7721; test: Induction of autophagy in human SMMC7721 cells assessed as decrease in p62 level at 1 to 3 uM by Western blot analysis; format: functional, cell-based
[9] = system: HepG2; test: Cytotoxicity against human HepG2 cells after 48 hrs by MTT assay; format: functional, cell-based; conditions: HepG2, 48 h
[10] = system: SMMC-7721; test: Induction of apoptosis in human SMMC7721 cells assessed as increase in p53 protein expression treated at 1 hr post antioxidant alpha-tocopherol addition and measured after 24 hrs by Western blot analysis; format: functional, cell-based
[11] = system: HepG2; test: Induction of apoptosis in human HepG2 cells assessed as increase in caspase-8 activation at 1 to 3 uM after 24 hrs by Western blot analysis; format: functional, cell-based
[12] = system: SMMC-7721; test: Antimigratory activity against human SMMC7721 cells at 1 to 3 uM after 24 hrs by crystal violet staining based transwell migration assay; format: functional, cell-based
[13] = system: SMMC-7721; test: Induction of apoptosis in human SMMC7721 cells treated at 1 hr post antioxidant alpha-tocopherol addition and measured after 24 hrs by Annexin V/propidium iodide staining based flow cytometry; format: functional, cell-based
[14] = system: SMMC-7721; test: Induction of autophagy in human SMMC7721 cells assessed as increase in LC3-2 level by Western blot analysis; format: functional, cell-based
[15] = system: HepG2; test: Potency index, ratio of amonafide IC50 to compound IC50 for cytotoxicity against human HepG2 cells; format: functional
[16] = system: HepG2; test: Induction of apoptosis in human HepG2 cells treated at 1 hr post antioxidant alpha-tocopherol addition and measured after 24 hrs by Annexin V/propidium iodide staining based flow cytometry; format: functional, cell-based
[17] = system: HepG2; test: Cytotoxicity against human HepG2 cells after 24 hrs by MTT assay; format: functional, cell-based; conditions: HepG2, 24 h
[18] = system: SMMC-7721; test: Induction of apoptosis in human SMMC7721 cells assessed as increase in caspase-8 activation at 1 to 3 uM after 24 hrs by Western blot analysis; format: functional, cell-based
[19] = system: HepG2; test: Induction of apoptosis in human HepG2 cells assessed as increase in cleaved PARP1 protein expression treated at 1 hr post antioxidant alpha-tocopherol addition and measured after 24 hrs by Western blot analysis; format: functional, cell-based
[20] = system: SMMC-7721; test: Antimigratory activity against human SMMC7721 cells after 24 hrs by scratch wound healing assay; format: functional, cell-based
[21] = system: HepG2; test: Cytotoxicity against human HepG2 cells assessed as reduction in cell viability in presence of autophagy inhibitor 3-MA by MTT assay; format: functional, cell-based
[22] = system: MCF7; test: Cytotoxicity against human MCF7 cells after 48 hrs by MTT assay; format: functional, cell-based; conditions: MCF7, 48 h
[23] = system: SMMC-7721; test: Induction of apoptosis in human SMMC7721 cells after 24 hrs by acridine orange/ethidium bromide and Hoechst 33342 staining based HCS analysis; format: functional, cell-based
[24] = system: SMMC-7721; test: Induction of autophagy in human SMMC7721 cells assessed as vacuolization at 2 uM after 12 hrs by transmission electron microscopic method; format: functional, cell-based
[25] = system: HepG2; test: Downregulation of beta-catenin protein expression in human HepG2 cells at 1 to 3 uM after 24 hrs by Western blot analysis; format: functional, cell-based
[26] = system: SMMC-7721; test: Cytotoxicity against human SMMC7721 cells after 48 hrs by MTT assay; format: functional, cell-based; conditions: SMMC-7721, 48 h
[27] = system: SMMC-7721; test: Cytotoxicity against human SMMC7721 cells assessed as cytoplasm shrinkage after 24 hrs; format: functional, cell-based
[28] = system: HepG2; test: Induction of autophagy in human HepG2 cells assessed as vacuolization after 12 hrs; format: functional, cell-based
[29] = system: SMMC-7721; test: Induction of ROS generation in human SMMC7721 cells at 1 to 3 uM after 24 hrs in presence of antioxidant alpha-tocopherol by DCFH-DA staining based HCS analysis; format: functional, cell-based
[30] = system: HepG2; test: Induction of apoptosis in human HepG2 cells assessed as decrease in Bcl2 protein expression at 1 to 3 uM after 24 hrs by Western blot analysis; format: functional, cell-based
[31] = system: SMMC-7721; test: Induction of autophagy in human SMMC7721 cells after 24 hrs by MDC staining based HCS analysis; format: functional, cell-based
[32] = system: SMMC-7721; test: Cytotoxicity against human SMMC7721 cells assessed as morphological changes treated at 1 hr post antioxidant alpha-tocopherol addition and measured after 24 hrs; format: functional, cell-based
[33] = system: HepG2; test: Cytotoxicity against human HepG2 cells assessed as reduction in cell volume after 24 hrs; format: functional, cell-based
[34] = system: HepG2; test: Cytotoxicity against human HepG2 cells assessed as cell rounding after 24 hrs; format: functional, cell-based
[35] = system: HepG2; test: Downregulation of Akt phosphorylation at […] residue in human HepG2 cells at 1 to 3 uM after 24 hrs by Western blot analysis; format: functional, cell-based
[36] = system: SMMC-7721; test: Induction of apoptosis in human SMMC7721 cells assessed as increase in cleaved PARP1 protein expression at 1 to 3 uM after 24 hrs by Western blot analysis; format: functional, cell-based
[37] = system: HepG2; test: Induction of ROS generation in human HepG2 cells at 1 to 3 uM after 24 hrs in presence of antioxidant alpha-tocopherol by DCFH-DA staining based HCS analysis; format: functional, cell-based
[38] = system: HepG2; test: Induction of apoptosis in human HepG2 cells at 3 uM after 48 hrs by Annexin V/propidium iodide staining based flow cytometry relative to control; format: functional
[39] = system: HepG2; test: Induction of apoptosis in human HepG2 cells assessed as increase in p53 protein expression treated at 1 hr post antioxidant alpha-tocopherol addition and measured after 24 hrs by Western blot analysis; format: functional, cell-based
[40] = system: SMMC-7721; test: Downregulation of Akt phosphorylation at […] residue in human SMMC7721 cells at 1 to 3 uM after 24 hrs by Western blot analysis; format: functional, cell-based
[41] = system: HepG2; test: Induction of autophagy in human HepG2 cells assessed as decrease in p62 level at 1 to 3 uM by Western blot analysis; format: functional, cell-based
[42] = system: SMMC-7721; test: Induction of apoptosis in human SMMC7721 cells after 24 hrs by Annexin V/propidium iodide staining based flow cytometry; format: functional, cell-based
[43] = system: HepG2; test: Induction of apoptosis in human HepG2 cells after 24 hrs by Annexin V/propidium iodide staining based flow cytometry; format: functional, cell-based
[44] = system: SMMC-7721; test: Cytotoxicity against human SMMC7721 cells after 24 hrs by MTT assay; format: functional, cell-based; conditions: SMMC-7721, 24 h
[45] = system: SMMC-7721; test: Induction of autophagy in human SMMC7721 cells assessed as vacuolization after 12 hrs; format: functional, cell-based

How did the Activity [1] turn out when `CCCCN1C(=O)c2ccc3c4c(ccc(c24)C1=O)C(=O)N(CCCN(C)C)C3=O` was run?
Its Activity is “inactive”.

And the Activity [2]?
The Activity was “inactive”.

What about the Activity [3] of the same molecule?
The Activity was “Active”.

And the Activity [4]?
Its Activity is “inactive”.

What about the Activity [5] of the same molecule?
The Activity was “Dose-dependent effect”.

What about the Activity [6] of the same molecule?
The Activity was “Active”.

What about the Activity [7] of the same molecule?
Its Activity is “Active”.

What about the Activity [8] of the same molecule?
Its Activity is “Active”.

What about the IC50 [9] of the same molecule?
The IC50 was 1.48 µM.

And the Activity [10]?
Its Activity is “inactive”.

And the Activity [11]?
The Activity was “Active”.

What about the Activity [12] of the same molecule?
The Activity was “Active”.

What about the Activity [13] of the same molecule?
Its Activity is “inactive”.

And the Activity [14]?
The Activity was “Dose-dependent effect”.

What about the “Ratio IC50” value [15] of the same molecule?
Its value is 5.

What about the Activity [16] of the same molecule?
Its Activity is “inactive”.

And the IC50 [17]?
Its IC50 is 4.29 µM.

What about the Activity [18] of the same molecule?
Its Activity is “Active”.

And the Activity [19]?
Its Activity is “inactive”.

What about the Activity [20] of the same molecule?
Its Activity is “Dose-dependent effect”.

What about the Activity [21] of the same molecule?
The Activity was “inactive”.

And the IC50 [22]?
The IC50 was 5.15 µM.

And the Activity [23]?
Its Activity is “Dose-dependent effect”.

And the Activity [24]?
The Activity was “Active”.

What about the Activity [25] of the same molecule?
The Activity was “Active”.

And the IC50 [26]?
The IC50 was 1.7 µM.

And the Activity [27]?
Its Activity is “Active”.

What about the Activity [28] of the same molecule?
The Activity was “Active”.

What about the Activity [29] of the same molecule?
Its Activity is “inactive”.

And the Activity [30]?
The Activity was “Active”.

And the Activity [31]?
Its Activity is “Dose-dependent effect”.

What about the Activity [32] of the same molecule?
The Activity was “inactive”.

And the Activity [33]?
Its Activity is “Active”.

And the Activity [34]?
Its Activity is “Active”.

And the Activity [35]?
Its Activity is “Active”.

What about the Activity [36] of the same molecule?
The Activity was “Active”.

And the Activity [37]?
The Activity was “inactive”.

What about the Activity [38] of the same molecule?
Its Activity is 67.8%.

What about the Activity [39] of the same molecule?
The Activity was “inactive”.

What about the Activity [40] of the same molecule?
Its Activity is “Active”.

What about the Activity [41] of the same molecule?
Its Activity is “Active”.

What about the Activity [42] of the same molecule?
The Activity was “Dose-dependent effect”.

And the Activity [43]?
Its Activity is “Dose-dependent effect”.

And the IC50 [44]?
The IC50 was 5.38 µM.

What about the Activity [45] of the same molecule?
The Activity was “Active”.
